Article PMC12730667, “A Scorpion Peptide Exerts Selective Anti-Leukemia Effects Through Disrupting Cell Membranes and Triggering Bax/Bcl-2-Related Apoptosis Pathway” (Biomolecules, 2025)
Where no end group is shown, it is not given here.

What was measured:
[1] = system: 24 distinct cancer cell lines; assay type: cell-based; settings: CCK-8, 5, 10 and 20 μM
Procedure: (§1) All cell lines, including CT26.WT, LLC, MV-4-11, HCT-116, ID8, Jurkat, L1210, OVCAR-8, YAC-1, MDA-MB-231, MEL, Mia PaCa-2, B16-F10, HepG2, A549 Hela, 4T1, Panco2, K562, RAJI, A375, HL-60, H1975, HaCat, HUVEC, and HDF, were obtained from the National Collection of Authenticated Cell Cultures (Shanghai, China) or saved in the lab and cultured in RPMI-1640 or DMEM or IMEM medium supplemented with 10% (v/v) fetal bovine serum (FBS), 100 units/mL penicillin, 100 µg/mL streptomycin, and 0.05% (v/v) L-glutamine serum in a humidified atmosphere of 5% CO2 at 37 °C.
(§2) To determine the effects of Lpep3 on cell cytotoxicity, the Cell Counting Kit-8 (CCK8) assay was performed according to the manufacturer’s protocol. Cells were seeded at 8 × 10^3 cells per well and treated with Lpep3 at different concentrations (100, 50, 25, 12.5, 6.25, 3.125, 1.56, 0.78, 0.39 μM) for 24 h. […] The absorbance at 450 nm was measured using a microplate reader (BioTek, Winooski, VT, USA). […] IC50 values were calculated using non-linear regression analysis of the dose–response curves in GraphPad Prism (8.0.2). The percentage of cellular viability was calculated using the following equation: Cell Viability %=ODSample−ODBlank/ODControl−ODBlank×100%
To comprehensively characterize the anticancer activity of peptides Lpep1–Lpep7, their cytotoxic effects across 24 distinct cancer cell lines were assessed using CCK-8 assays. […]

[2] = system: 4T1 cells; assay type: cell-based; settings: 24 h
Procedure: as §1
(§3) To determine the effects of Lpep3 on cell cytotoxicity, the Cell Counting Kit-8 (CCK8) assay was performed according to the manufacturer’s protocol. Cells were seeded at 8 × 10^3 cells per well and treated with Lpep3 at different concentrations (100, 50, 25, 12.5, 6.25, 3.125, 1.56, 0.78, 0.39 μM) for 24 h. Subsequently, 10 μL of CCK8 reagent (Abbkine, Wuhan, China) was added to each well and incubated for 1–4 h at 37 °C. The absorbance at 450 nm was measured using a microplate reader (BioTek, Winooski, VT, USA). The half-maximal inhibitory concentration (IC50) was defined as the peptide concentration required to reduce cell viability by 50% relative to the untreated control. IC50 values were calculated using non-linear regression analysis of the dose–response curves in GraphPad Prism (8.0.2). The percentage of cellular viability was calculated using the following equation: Cell Viability %=ODSample−ODBlank/ODControl−ODBlank×100%

[3] = system: B16-F10 cells; assay type: cell-based; settings: 24 h
Procedure: as §1, §3

[4] = system: CT26.WT cells; assay type: cell-based; settings: 24 h
Procedure: as §1, §3

[5] = system: H1975 cells; assay type: cell-based; settings: 24 h
Procedure: as §1, §3

[6] = system: HDF cells; assay type: cell-based; settings: 24 h
Procedure: as §1, §3

[7] = system: HUVEC cells; assay type: cell-based; settings: 24 h
Procedure: as §1, §3

[8] = system: HaCaT cells; assay type: cell-based; settings: 24 h
Procedure: as §1, §3

[9] = system: ID8 cells; assay type: cell-based; settings: 24 h
Procedure: as §1, §3

[10] = system: LLC cells; assay type: cell-based; settings: 24 h
Procedure: as §1, §3

[11] = system: Panc02 cells; assay type: cell-based; settings: 24 h
Procedure: as §1, §3

[12] = system: A375 cells; assay type: cell-based, human; settings: 24 h
Procedure: as §1, §3

[13] = system: A549 cells; assay type: cell-based, human; settings: 24 h
Procedure: as §1, §3

[14] = system: HCT116 cells; assay type: cell-based, human; settings: 24 h
Procedure: as §1, §3

[15] = system: HL-60 cells; assay type: cell-based, human; settings: 24 h
Procedure: as §1, §3

[16] = system: HeLa cells; assay type: cell-based, human; settings: 24 h
Procedure: as §1, §3

[17] = system: Hep G2 cells; assay type: cell-based, human; settings: 24 h
Procedure: as §1, §3

[18] = system: Jurkat cells; assay type: cell-based, human; settings: 24 h
Procedure: as §1, §3

[19] = system: K562 cells; assay type: cell-based, human
Procedure: as §1, §3

[20] = system: MDA-MB-231 cells; assay type: cell-based, human; settings: 24 h
Procedure: as §1, §3

[21] = system: MV-4-11 cells; assay type: cell-based, human
Procedure: as §1, §3

[22] = system: Mia PaCa-2 cells; assay type: cell-based, human; settings: 24 h
Procedure: as §1, §3

[23] = system: OVCAR-8 cells; assay type: cell-based, human; settings: 24 h
Procedure: as §1, §3

[24] = system: L1210 cells; settings: 24 h
Procedure: as §1, §3

[25] = system: MEL cells; settings: 24 h
Procedure: as §1, §3

[26] = system: YAC-1 cells; settings: 24 h
Procedure: as §1, §3

[27] = system: Primary PBMC; assay type: cell-based; settings: 24 h
Procedure: Briefly, fresh anticoagulated whole blood was collected and diluted with 1× PBS buffer at a ratio of 1:1, followed by gentle mixing. Then, an appropriate volume of mononuclear cell separation medium was added to a sterile centrifuge tube, and the diluted blood sample was carefully layered onto the surface of the separation medium (separation medium–diluted whole blood = 1:2) while maintaining a clear interface between the two layers. Then, it was centrifuged at 450× g for 20–30 min at room temperature. After centrifugation, the plasma layer was aspirated and discarded, then the PBMC layer was carefully collected (i.e., the buffy coat) and transferred to a 15 mL centrifuge tube. […] The isolated PBMCs were then ready for subsequent experiments.
as §2, with “protocol.” for “protocol. Cells were seeded at 8 × 10^3 cells per well and treated with Lpep3 at different concentrations (100, 50, 25, 12.5, 6.25, 3.125, 1.56, 0.78, 0.39 μM) for 24 h.”

[28] = system: solid tumor cell lines; experiment: CCK-8 IC50, solid cancer cell lines as a group; assay type: cell-based; settings: range over hepatocellular, pancreatic, breast, cervical, lung, colorectal, ovarian and melanoma cell lines, CCK-8, 24 h; read-out: IC50 values in solid cancers
Procedure: as §3
Based on the above results, subsequent studies will focus on determining the IC50 of Lpep3 to accurately quantify the intensity of its anticancer activity. […] The ovarian cell was the most sensitive in solid tumor cell lines.

[29] = system: non-cancer cells; assay type: cell-based; settings: 24 h
Procedure: as §3
The lowest values approached 0.6 μM in MV-4-11. […] Based on this discrepancy, concentrations of 0.5 μM and 1 μM were selected for subsequent experiments.

[30] = system: red blood cells; experiment: Hemolytic activity assay; assay type: cell-based; settings: red blood cells in PBS, 37 °C, 1 h, absorbance 450 nm, 0.1% Triton X-100 as positive control, Figure S2B
Procedure: A total of 500 μL fresh whole blood was collected and diluted with 5 mL PBS and then centrifuged at 1000 rpm for 5 min to remove the plasma. The pellet was washed again by adding PBS to a final volume of approximately 10 mL, followed by centrifuging at 1000 rpm for 5 min. This washing step was repeated until the supernatant became clear. The resulting red blood cell pellet was then resuspended in 10 mL PBS. For the hemolysis assay, 200 μL suspension was mixed with 200 μL Lpep3 with different concentrations (100, 50, 25, 12.5, 6.25, 3.125, 1.57, 0.78, 0.39 μM). The positive control consisted of 200 μL suspension mixed with 200 μL 0.1% Triton X-100, while the negative control contained 200 μL RBC suspension and 200 μL PBS. All mixtures were incubated at 37 °C for 1 h, followed by centrifugation at 12,000 rpm for 5 min. The supernatant was collected and measured at 450 nm. The hemolysis rate was calculated using the following equation: Hemolysis rate%=ODSample−ODnegative/ODPositive−ODnagative×100%

[31] = In vivo biosafety in tumor-bearing nude mice (body weight, blood, liver/kidney function, H&E); set-up: species or system mouse; settings: 10 mg/kg i.p. every other day, 6 injections
Description: Healthy male BALB/c nu/nu nude mice (aged 4–5 weeks) were purchased from Slac & Jingda Laboratory Animal Co., Ltd. (Changsha, China). All animal experiments were strictly approved by the Institutional Animal Care and Use Committee (IACUC) of Hunan Normal University, and the Guidelines for the Care and Use of Laboratory Animals issued by the National Institutes of Health (NIH, Bethesda, MD, USA) were strictly adhered to throughout the experiment. MV-4-11 cells (5 × 10^6 cells resuspended in a 1:1 mixture of Matrigel and PBS) were subcutaneously (s.c.) injected into the right axillary fossa of each mouse. When the tumor volume reached 100–150 mm^3, all mice were randomly divided into two groups (n = 4). Mice in the experimental group were intraperitoneally injected with 50 μL of Lpep3 (10 mg/kg), while those in the control group received an intraperitoneal injection of an equal volume of sterile PBS. The day of the first injection was defined as Day 0. Injections were administered every other day, with a total of 6 administrations. Additionally, the tumor volume and body weight of mice in each group were monitored at regular intervals. After the experiment, major organs were dissected, fixed in 4% paraformaldehyde (PFA), and subjected to histological examination. Major organs were further stained with hematoxylin and eosin (H&E) for pathological analysis.
After euthanasia, whole blood was collected and allowed to stand at 4 °C for 1 h and then centrifuged at 3000× g for 10 min to obtain serum. Serum biochemical and liver/kidney function parameters, including RBC, NEU, HGB, ALT, AST, BUN, and creatinine, were analyzed using an automated chemistry analyzer (TBA-40FR, Tochigi, Japan) according to the manufacturer’s instructions.

[32] = system: Raji cells; assay type: cell-based, human; settings: Raji, 5, 10 and 20 μM, CCK-8
Procedure: as §1
as §3, with “Cells were seeded at 8 × 10^3 cells per well and treated with Lpep3 at different concentrations (100, 50, 25, 12.5, 6.25, 3.125, 1.56, 0.78, 0.39 μM) for 24 h.” left out

[33] = Solubility of the synthesized peptide in PBS and DMSO; assay type: physicochemical; settings: peptide excluded from experimental verification
Description: Based on the anticancer prediction model CNBT-ACPred established by our team previously, there are 276 toxic animal polypeptides whose average prediction score is greater than 0.73. Then, based on the top prediction scores and species diversity, seven candidate peptides were chosen for subsequent experimental validation (Table 2).

For FFGSLLSLGSKLLPSVFKLFQRKKE [Lpep3], the “cytotoxic effects across 24 distinct cancer cell lines” value [1] was “potent, broad-spectrum cytotoxic peptide”, the IC50 [2] was 3050 nM and the IC50 [3] was 11800 nM. It also gave an IC50 [4] of 2000 nM, an IC50 [5] of 3040 nM and an IC50 [6] of 4520 nM. The IC50 [7] was 6420 nM, the IC50 [8] was 5800 nM and the IC50 [9] was 1990 nM. The IC50 [10] was 2320 nM, the IC50 [11] was 2870 nM and the IC50 [12] was 2230 nM. For the same sequence, the cell viability ([12]; 5 μM) was ~0%, the IC50 [13] was 2720 nM and the IC50 [14] was 3200 nM. The IC50 [15] was 1490 nM, the IC50 [16] was 2720 nM and the cell viability ([16]; 5 μM) was ~0%. It also gave an IC50 [17] of 6990 nM, an IC50 [18] of 554 nM and a cell viability ([18]; 5 μM) of ~0%. It also gave an IC50 ([19]; 24 h) of 656 nM, a cell viability ([19]; 24 h, 5 μM) of ~0% and an IC50 [20] of 2320 nM. For the same sequence, the cell viability ([20]; 5 μM) was ~0%, the IC50 ([21]; 24 h) was 600 nM and the cell viability ([21]; 24 h, 5 μM) was ~0%. For the same sequence, the IC50 [22] was 5400 nM, the IC50 [23] was 1300 nM and the cell viability ([23]; 5 μM) was ~0%. It also gave an IC50 [24] of 2050 nM, an IC50 [25] of 563 nM and an IC50 [26] of 728 nM. The IC50 [27] was 3810 nM, the IC50 [28] was 1300 to 11000 nM and the IC50 [29] was ~5000 nM. For the same sequence, the “concentration at which a 50% hemolysis rate was observed” value [30] was 12.5 µM, the “liver and kidney function indices (AST, ALT, UA, CRE)” value ([31]; n = 4, serum) was “remained within the normal range” and the “blood routine indices (RBC, HGB, Neu)” value ([31]; n = 4, vs PBS) was “no obvious difference”. The body weight ([31]; n = 4, vs PBS) was “no obvious difference” and the “H&E staining of liver, spleen and kidney” value ([31]; vs control group) was “no obvious damage”.

In the case of “FVQWFSKFLGRIL [Lpep7, 13-residue candidate peptide, species Rana temporaria]”, the cytotoxic activity ([19]; K562, 5, 10 and 20 μM, CCK-8) is reported as “moderate activity”, the cytotoxic activity ([21]; MV-4-11, 5, 10 and 20 μM, CCK-8) is reported as “moderate activity” and the cytotoxic activity [32] is reported as “moderate activity”.

With “GLFDIAKKVIGVIGSL [Lpep4, 16-residue candidate peptide, species Ranoidea raniformis]” the “solubility in PBS and DMSO” value [33] was “poor solubility”.
